Like-named read-outs stand apart in the source and are kept apart here.
Experiments:
UGT1A9 [1] = target: T1, UGT1A9 (Homo sapiens, UniProt O60656); assay: Kinetic profiling of glucuronidation by expressed human UGT1A9; conditions: for Log (CLint) (Actual): log of experimental CLint (μl/mg/min); for Vmax: pH 7.4
T1 sequence (O60656 26-530): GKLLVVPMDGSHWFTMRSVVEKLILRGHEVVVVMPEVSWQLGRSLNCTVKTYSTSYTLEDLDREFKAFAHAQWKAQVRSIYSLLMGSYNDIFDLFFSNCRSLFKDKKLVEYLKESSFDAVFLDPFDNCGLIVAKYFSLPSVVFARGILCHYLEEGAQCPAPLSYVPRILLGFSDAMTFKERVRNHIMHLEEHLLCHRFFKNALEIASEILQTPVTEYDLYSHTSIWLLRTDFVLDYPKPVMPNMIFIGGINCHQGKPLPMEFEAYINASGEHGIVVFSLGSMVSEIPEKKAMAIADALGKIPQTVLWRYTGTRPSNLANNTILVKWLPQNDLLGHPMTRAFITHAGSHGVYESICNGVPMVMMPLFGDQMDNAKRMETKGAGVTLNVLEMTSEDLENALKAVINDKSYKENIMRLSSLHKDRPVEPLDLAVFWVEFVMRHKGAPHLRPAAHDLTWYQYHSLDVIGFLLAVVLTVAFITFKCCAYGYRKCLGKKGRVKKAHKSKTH

UGT1A9 [2] = target: T1, UGT1A9; assay: in vitro
UGT1A9 [3] = target: T1, UGT1A9; conditions: for Log (CLint) (Actual): recombinant enzyme

Question: `O=c1c(O)c(-c2ccccc2)oc2cc(O)cc(O)c12` [85.a, Galangin] was tested. Which “Log (CLint) (Actual)” value (UGT1A9 [1]) did it give?
Answer: Its value is 4.04.

Question: And the “Log (CLint) (Actual)” value (UGT1A9 [1]; listed as 85.b)?
Answer: Its value is 3.68.

Question: What about the Km (UGT1A9 [2]; pH 7.4, Km) of the same compound?
Answer: The Km was 0.68 µM.

Question: For `O=C(/C=C/c1ccccc1)c1ccccc1O` [compound 5, 2′-Hydroxychalcone], which “Log (CLint) (Actual)” value (UGT1A9 [3]; human, pH 7.4) is on record?
Answer: The value was 3.12.

Question: Which results are given for `Cc1cc(O)c2c(c1)C(=O)c1cc(O)cc(O)c1C2=O` [compound 18, Emodin]?
Answer: CLint (Vmax/Km) (UGT1A9 [3]; human, pH 7.4): 1020 µL/min/mg; Log (CLint) (Actual) (UGT1A9 [3]; human, pH 7.4): 3.01; Km (UGT1A9 [2]; pH 7.4, Km): 2.87 µM

Question: How did the “CLint (Vmax/Km)” value (UGT1A9 [3]; human, pH 7.4) turn out when `Oc1cccc2ccccc12` [compound 21, Naphthol] was run?
Answer: The value was 288 µL/min/mg.

Question: What about the “Log (CLint) (Actual)” value (UGT1A9 [3]; human, pH 7.4) of the same compound?
Answer: The value was 2.46.

Question: What about the Vmax (UGT1A9 [1]) of the same compound?
Answer: The Vmax was 72.1 pmol/mg/min.

Question: Which “Log (CLint) (Actual)” value (UGT1A9 [3]; human, pH 7.4) does the source give for `O=c1cc(-c2ccccc2)oc2cccc(O)c12` [compound 34, 5-Hydroxyflavone] here?
Answer: The value was 2.09.

Question: Which “CLint (Vmax/Km)” value (UGT1A9 [3]) does the source give for `O=c1cc(-c2cccc(O)c2)oc2cc(O)c(O)cc12` [compound 36, 6,7,3′-Trihydroxflavone] here?
Answer: Its value is 775 µL/min/mg.

Question: And the “Log (CLint) (Actual)” value (UGT1A9 [3]; human)?
Answer: Its value is 2.89.

Question: What about the Km (UGT1A9 [3]; pH 7.4) of the same compound?
Answer: The Km was 3.01 µM.

Question: For `Cc1cc(O)cc2oc(-c3ccccc3)cc(=O)c12` [compound 48, 7-Hydoxy-5-methylflavone], which “CLint (Vmax/Km)” value (UGT1A9 [3]) is on record?
Answer: The value was 5712 µL/min/mg.

Question: What about the “Log (CLint) (Actual)” value (UGT1A9 [3]; human) of the same compound?
Answer: Its value is 3.76.

Question: What about the Km (UGT1A9 [3]; pH 7.4) of the same compound?
Answer: Its Km is 0.94 µM.

Question: With `O=c1cc(-c2ccc(O)cc2)oc2cc(O)cc(O)c12` [compound 50, Apigenin] as the compound, how does the “Log (CLint) (Actual)” value (UGT1A9 [3]; human, pH 7.4) read?
Answer: The value was 3.23.

Question: Which results are given for `O=c1cc(-c2ccccc2)oc2cc(O)c(O)c(O)c12` [compound 51, Baicalein]?
Answer: Log (CLint) (Actual) (UGT1A9 [3]; human, pH 7.4): 3.88; Km (UGT1A9 [2]; pH 7.4, Km): 0.7 µM

Question: With `O=c1cc(-c2ccccc2)oc2cc(O)cc(O)c12` [compound 52, Chrysin] as the compound, how does the “Log (CLint) (Actual)” value (UGT1A9 [3]; human, pH 7.4) read?
Answer: Its value is 3.96.

Question: Which “Log (CLint) (Actual)” value (UGT1A9 [3]; human, pH 7.4) does the source give for `COc1c(O)cc2oc(-c3ccccc3)cc(=O)c2c1O` [compound 57, OroxylinA] here?
Answer: Its value is 2.94.

Question: Which results are given for `O=c1c(O)c(-c2ccc(O)cc2)oc2ccccc12` [compound 64, 3,4′-Dihydroxyfavone]?
Answer: CLint (Vmax/Km) (UGT1A9 [3]): 14000 µL/min/mg; Log (CLint) (Actual) (UGT1A9 [3]; human): 4.14; Km (UGT1A9 [3]; pH 7.4): 0.13 µM

Question: Which “CLint (Vmax/Km)” value (UGT1A9 [3]) does the source give for `O=c1c(O)c(-c2ccccc2)oc2ccc(O)cc12` [compound 65, 3,6-Dihydroxyfavone] here?
Answer: Its value is 21000 µL/min/mg.

Question: What about the “Log (CLint) (Actual)” value (UGT1A9 [3]; human) of the same compound?
Answer: The value was 4.32.

Question: What about the Km (UGT1A9 [3]; pH 7.4) of the same compound?
Answer: Its Km is 0.62 µM.

Question: How did the “Log (CLint) (Actual)” value (UGT1A9 [3]; human, pH 7.4) turn out when `COc1cc(-c2oc3cc(O)cc(O)c3c(=O)c2O)ccc1O` [compound 87, Isorhamnetin] was run?
Answer: The value was 4.59.

Question: For `COc1cc(/C=C/C(=O)O)ccc1O` [compound 95, Ferulic Acid], which “CLint (Vmax/Km)” value (UGT1A9 [3]) is on record?
Answer: Its value is 0.4 µL/min/mg.

Question: What about the “Log (CLint) (Actual)” value (UGT1A9 [3]; human) of the same compound?
Answer: The value was 0.30.

Question: And the Km (UGT1A9 [3]; pH 7.4)?
Answer: The Km was 884 µM.

Question: And the Vmax (UGT1A9 [1])?
Answer: The Vmax was 372 pmol/mg/min.

Question: What does the source list for `COc1ccc(-c2coc3cc(O)cc(O)c3c2=O)cc1` [compound 100, Biochanin A]?
Answer: CLint (Vmax/Km) (UGT1A9 [3]): 335 µL/min/mg; Log (CLint) (Actual) (UGT1A9 [3]; human): 2.53; Km (UGT1A9 [3]; pH 7.4): 1.13 µM

Question: Which results are given for `O=c1c(-c2ccc(O)cc2)coc2cc(O)ccc12` [compound 101, Daidzein]?
Answer: CLint (Vmax/Km) (UGT1A9 [3]; human, pH 7.4): 77 µL/min/mg; Log (CLint) (Actual) (UGT1A9 [3]; human, pH 7.4): 1.89

Question: For `O=C1c2ccc(O)cc2OCC1c1ccc(O)cc1` (stereo not drawn) [compound 102, Dihydrodaidzein], which “CLint (Vmax/Km)” value (UGT1A9 [3]) is on record?
Answer: The value was 8.1 µL/min/mg.

Question: And the “Log (CLint) (Actual)” value (UGT1A9 [3]; human)?
Answer: The value was 0.91.

Question: What about the Km (UGT1A9 [3]; pH 7.4) of the same compound?
Answer: The Km was 77.7 µM.

Question: How did the “CLint (Vmax/Km)” value (UGT1A9 [3]; human, pH 7.4) turn out when `O=c1c(-c2ccc(O)cc2)coc2cc(O)cc(O)c12` [compound 105, Genistein] was run?
Answer: Its value is 617 µL/min/mg.

Question: And the “Log (CLint) (Actual)” value (UGT1A9 [1])?
Answer: Its value is 2.79.

Question: What about the Km (UGT1A9 [2]; pH 7.4) of the same compound?
Answer: The Km was 2.09 µM.

Question: Which “Log (CLint) (Actual)” value (UGT1A9 [3]; human, pH 7.4) does the source give for `CCCCc1ccc(O)cc1` [compound 110, 4-n-Butylphenol] here?
Answer: Its value is 1.18.

Question: What about the Km (UGT1A9 [2]; pH 7.4, Km) of the same compound?
Answer: The Km was 43.1 µM.

Question: Which results are given for `CC(C)c1ccc(O)cc1` [compound 117, 4-Isopropylphenol]?
Answer: Log (CLint) (Actual) (UGT1A9 [1]): 1.78; Km (UGT1A9 [2]; pH 7.4): 36.4 µM

Question: Which “Log (CLint) (Actual)” value (UGT1A9 [3]; human, pH 7.4) does the source give for `Cc1ccc(O)cc1` [compound 119, 4-Methylphenol] here?
Answer: Its value is 1.39.

Question: With `Oc1ccc(N=Nc2ccccc2)cc1` [compound 124, 4-Phenylazophenol] as the compound, how does the “CLint (Vmax/Km)” value (UGT1A9 [3]) read?
Answer: The value was 14 µL/min/mg.

Question: And the “Log (CLint) (Actual)” value (UGT1A9 [3]; human)?
Answer: The value was 1.15.

Question: What about the Km (UGT1A9 [3]; pH 7.4) of the same compound?
Answer: The Km was 82.5 µM.

Question: Which results are given for `CCC(C)c1ccc(O)cc1` (stereo not drawn) [compound 127, 4-sec-Butylphenol]?
Answer: CLint (Vmax/Km) (UGT1A9 [3]; human, pH 7.4): 37 µL/min/mg; Log (CLint) (Actual) (UGT1A9 [1]): 1.57; Km (UGT1A9 [2]; pH 7.4, Km): 87.5 µM

Question: For `CCOC(=O)c1ccc(O)cc1` [compound 130, Ethyl-4-hydroxybenzoate], which “Log (CLint) (Actual)” value (UGT1A9 [3]; human, pH 7.4) is on record?
Answer: The value was 1.61.

Question: Which “Log (CLint) (Actual)” value (UGT1A9 [3]; human, pH 7.4) does the source give for `C=CCc1ccc(O)c(OC)c1` [compound 131, Eugenol] here?
Answer: The value was 1.60.

Question: With `COC(=O)c1ccc(O)cc1` [compound 132, Methyl-4-hydroxybenzoate] as the compound, how does the “Log (CLint) (Actual)” value (UGT1A9 [3]; human, pH 7.4) read?
Answer: The value was 1.73.

Question: For `CCCOC(=O)c1ccc(O)cc1` [compound 134, Propyl-4-hydroxybenzoate], which “Log (CLint) (Actual)” value (UGT1A9 [3]; human, pH 7.4) is on record?
Answer: Its value is 1.48.

Question: `CC(C)(c1ccc(O)cc1)c1ccc(O)cc1` [compound 135, Bisphenol A] was tested. Which “Log (CLint) (Actual)” value (UGT1A9 [3]; human, pH 7.4) did it give?
Answer: The value was 1.68.

Question: Which “Log (CLint) (Actual)” value (UGT1A9 [1]) does the source give for `COc1cc(/C=C/c2ccc(O)cc2)cc(OC)c1` [compound 137, Pterostilbene] here?
Answer: The value was 0.05.

Question: For `Oc1ccc(/C=C/c2cc(O)cc(O)c2)cc1` [compound 138, Resveratrol], which “Log (CLint) (Actual)” value (UGT1A9 [1]) is on record?
Answer: The value was 1.8.

Question: For `CCN(CC)C(=O)/C(C#N)=C/c1cc(O)c(O)c([N+](=O)[O-])c1` [compound 140, Entacapone, reference compound], which “Log (CLint) (Actual)” value (UGT1A9 [1]) is on record?
Answer: Its value is 4.01.

Question: `O=C1[C@H](CC[C@H](O)c2ccc(F)cc2)[C@@H](c2ccc(O)cc2)N1c1ccc(F)cc1` [compound 141, Ezetimibe, reference compound] was tested. Which “Log (CLint) (Actual)” value (UGT1A9 [1]) did it give?
Answer: Its value is −0.56.

Question: With `COc1c(C)c2c(c(O)c1C/C=C(\C)CCC(=O)O)C(=O)OC2` [compound 142, Mycophenolic Acid, reference compound] as the compound, how does the “Log (CLint) (Actual)” value (UGT1A9 [1]) read?
Answer: Its value is 1.96.

Question: How did the “Log (CLint) (Actual)” value (UGT1A9 [3]; human, pH 7.4) turn out when `CN(C)CCc1c[nH]c2cccc(O)c12` [compound 143, Psilocin] was run?
Answer: Its value is 0.90.

Question: For `CCc1c2c(nc3ccc(O)cc13)-c1cc3c(c(=O)n1C2)COC(=O)[C@]3(O)CC` [compound 144, SN-38], which “CLint (Vmax/Km)” value (UGT1A9 [3]) is on record?
Answer: Its value is 3 µL/min/mg.

Question: And the “Log (CLint) (Actual)” value (UGT1A9 [3]; human)?
Answer: Its value is 0.44.

Question: How did the “Log (CLint) (Actual)” value (UGT1A9 [1]) turn out when `Cc1ccc(C(=O)c2cc(O)c(O)c([N+](=O)[O-])c2)cc1` [compound 145, Tolcapone, reference compound] was run?
Answer: Its value is 2.62.

Question: Which “glucuronide metabolite formation on incubation with UGT1A9 (non-substrate)” value (UGT1A9 [3]) does the source give for `C[C@]12CC[C@@H]3c4ccc(O)cc4CC[C@H]3[C@@H]1CC[C@@H]2O` [estradiol, reference compound] here?
Answer: Its value is “no metabolite can be detected”.

Question: How did the “Log (CLint) (Actual)” value (UGT1A9 [1]) turn out when (−)-Epigallocatechingallate [1.a] was run?
Answer: Its value is 2.20.

Question: And the “Log (CLint) (Actual)” value (UGT1A9 [1]; listed as 1.b)?
Answer: Its value is 2.81.
